Reference: ChEMBL document CHEMBL1201862, “PubChem BioAssay data set” (2004)
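1) Cells in 96-well plates. 2) Compound, 48 h, 5 concentrations. 3) Linear interpolation between surrounding doses. 4) Unreached endpoint = highest concentration. GI50: concentration for 50% inhibition of growth.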 Active and inactive are the calls of the source. No stated cut-off is given here; in the data, active = GI50 up to about 1.1 µM and inactive = higher.

Legend:
Experiment in all cases: NCI anticancer screen, dose series, 48 h
MDA-MB-231 = system: MDA-MB-231
HOP-62 = system: HOP-62
TK-10 = system: TK-10
SK-MEL-5 = system: SK-MEL-5
RXF 393 = system: RXF 393
HCC 2998 = system: HCC 2998
SF-295 = system: SF-295
ACHN = system: ACHN
SK-MEL-2 = system: SK-MEL-2
BT-549 = system: BT-549
NCI-H23 = system: NCI-H23
SF-268 = system: SF-268
NCI-H226 = system: NCI-H226
HT-29 = system: HT-29
LOX IMVI = system: LOX IMVI
MDA-MB-435 = system: MDA-MB-435
MOLT-4 = system: MOLT-4
U-251 = system: U-251
MCF7 = system: MCF7
OVCAR-5 = system: OVCAR-5

Row | SMILES | GI50 (MDA-MB-231) | GI50 (HOP-62) | GI50 (TK-10) | GI50 (SK-MEL-5) | GI50 (RXF 393) | GI50 (HCC 2998) | GI50 (SF-295) | GI50 (ACHN) | GI50 (SK-MEL-2) | GI50 (BT-549) | GI50 (NCI-H23) | GI50 (SF-268) | GI50 (NCI-H226) | GI50 (HT-29) | GI50 (LOX IMVI) | GI50 (MDA-MB-435) | GI50 (MOLT-4) | GI50 (U-251) | GI50 (MCF7) | GI50 (OVCAR-5)
1 | N=c1oc2ccc(Cl)cc2cc1C(=O)Nc1ccccc1 | 53.8 µM (inactive) | 21.6 µM (inactive) | > 75.2 µM (inactive) | > 100 µM (inactive) | 26.2 µM (inactive) | 36.3 µM (inactive) | > 100 µM (inactive) | 45.8 µM (inactive) | > 100 µM (inactive) | > 54 µM (inactive) | > 48.5 µM (inactive) | > 76 µM (inactive) | > 100 µM (inactive) | > 100 µM (inactive) | > 100 µM (inactive) | > 100 µM (inactive) | > 100000 nM (inactive) | > 46.1 µM (inactive) | 19.6 µM (inactive) | > 100 µM (inactive)
2 | N#Cc1c(O)nc2[nH]nc(/N=N\c3c(O)ccc4ccccc34)c2c1-c1ccc(Cl)cc1 | 0.23 µM (active) | 0.164 µM (active) | 0.108 µM (active) | 0.369 µM (active) | 0.198 µM (active) | 0.359 µM (active) | 0.24 µM (active) | 0.296 µM (active) | 0.202 µM (active) | 0.0826 µM (active) | 0.47 µM (active) | 0.0682 µM (active) | 0.4 µM (active) | 0.123 µM (active) | 0.057 µM (active) | 0.789 µM (active) | 171 nM (active) | 0.124 µM (active) | 0.147 µM (active) | 0.834 µM (active)
3 | CCOc1ccc(/N=N/C2C(=O)N(C(=O)CC(=O)Nc3ccccc3OC)N=C2C)cc1 (stereo not given) | > 36.5 µM (inactive) | > 33.4 µM (inactive) | > 33.1 µM (inactive) | 32.3 µM (inactive) | 12.5 µM (inactive) | > 21.7 µM (inactive) | > 36.6 µM (inactive) | > 100 µM (inactive) | > 38.2 µM (inactive) | 13.2 µM (inactive) | 38 µM (inactive) | > 42.8 µM (inactive) | > 52.1 µM (inactive) | 4.13 µM (inactive) | 29.7 µM (inactive) | 1.93 µM (inactive) | > 22300 nM (inactive) | > 36 µM (inactive) | 6.61 µM (inactive) | > 100 µM (inactive)
4 | O=[N+]([O-])C1=Cc2cc(Cl)ccc2OC1c1cccc2ccccc12 (stereo not given) | 1.77 µM (inactive) | 0.871 µM (active) | 1.27 µM (inactive) | 1.26 µM (inactive) | 0.405 µM (active) | 0.984 µM (active) | 2.38 µM (inactive) | 1.52 µM (inactive) | 1.36 µM (inactive) | 0.436 µM (active) | 0.847 µM (active) | 1.26 µM (inactive) | 1.62 µM (inactive) | 0.637 µM (active) | 0.29 µM (active) | 1.44 µM (inactive) | 251 nM (active) | 1.56 µM (inactive) | 0.521 µM (active) | 1.99 µM (inactive)
5 | COC(=O)C1=C(O)C(C(=O)OC)[C@]2(O)[C@H](C(=O)OC)[C@H]1C[C@@H](c1ccc(F)cc1)[C@H]2C(=O)OC (stereo not given in full) | 30.1 µM (inactive) | 22.6 µM (inactive) | 21.9 µM (inactive) | 12.3 µM (inactive) | 11.2 µM (inactive) | 14.6 µM (inactive) | 14.2 µM (inactive) | 15.5 µM (inactive) | 4.35 µM (inactive) | 21.4 µM (inactive) | 14 µM (inactive) | 23.7 µM (inactive) | 17.3 µM (inactive) | 16.6 µM (inactive) | 18.4 µM (inactive) | 5.43 µM (inactive) | 15200 nM (inactive) | 15.4 µM (inactive) | 5.35 µM (inactive) | 17.7 µM (inactive)
6 | CC1CCC2(OC1)OC1CC3C4CC=C5CC(OC6OC(CO)C(OC7OC(C)C(OC8OC(C)C(O)C(O)C8O)C(O)C7O)C(O)C6OC6OC(C)C(O)C(O)C6O)CCC5(C)C4CCC3(C)C1C2C (stereo not given) | 0.0628 µM (active) | 2.56 µM (inactive) | 1.39 µM (inactive) | 1.43 µM (inactive) | 0.583 µM (active) | 0.313 µM (active) | 0.308 µM (active) | 1.47 µM (inactive) | 1.21 µM (inactive) | 1.66 µM (inactive) | 1.66 µM (inactive) | 0.56 µM (active) | 1.36 µM (inactive) | 1 µM (active) | 0.185 µM (active) | 0.281 µM (active) | 237 nM (active) | 0.65 µM (active) | 1.38 µM (inactive) | 1.12 µM (inactive)
7 | O=C1C(Br)=Cc2c(Cl)sc(Cl)c21 | 3.13 µM (inactive) | 7.45 µM (inactive) | 2.17 µM (inactive) | 19.5 µM (inactive) | 2.46 µM (inactive) | 2.37 µM (inactive) | 24 µM (inactive) | 2.91 µM (inactive) | 13.6 µM (inactive) | 22.2 µM (inactive) | 8.85 µM (inactive) | 3.4 µM (inactive) | > 100 µM (inactive) | 4.58 µM (inactive) | 2.36 µM (inactive) | 2.11 µM (inactive) | 515 nM (active) | 2.59 µM (inactive) | 2.44 µM (inactive) | 13.3 µM (inactive)
